For orientation: ED50 means the midpoint of the dose-response relation. What is called inhibition in vivo is the percentage by which the read-out fell short of the control. The IC50 is the point on the concentration scale where inhibition reaches its midpoint. Low readings indicate greater potency, high ones weaker potency.

Assay [1] relates to Rattus norvegicus. As to the kind of experiment: Antiinflammatory activity in rat assessed as inhibition of carrageenan-induced paw edema after 3 hrs. It counts as functional. For orientation: In the carrageenan paw model, swelling and tenderness develop within hours.
For assay [2], the system named is Rattus norvegicus. Description: Antiinflammatory activity in rat assessed as inhibition of carrageenan-induced paw edema at 100 mg/kg, po after 3 hrs. Type of assay: functional.
The target in assay [3] is T1, Prostaglandin G/H synthase 1 (Ovis aries, UniProt P05979).
T1 sequence (P05979 whole entry): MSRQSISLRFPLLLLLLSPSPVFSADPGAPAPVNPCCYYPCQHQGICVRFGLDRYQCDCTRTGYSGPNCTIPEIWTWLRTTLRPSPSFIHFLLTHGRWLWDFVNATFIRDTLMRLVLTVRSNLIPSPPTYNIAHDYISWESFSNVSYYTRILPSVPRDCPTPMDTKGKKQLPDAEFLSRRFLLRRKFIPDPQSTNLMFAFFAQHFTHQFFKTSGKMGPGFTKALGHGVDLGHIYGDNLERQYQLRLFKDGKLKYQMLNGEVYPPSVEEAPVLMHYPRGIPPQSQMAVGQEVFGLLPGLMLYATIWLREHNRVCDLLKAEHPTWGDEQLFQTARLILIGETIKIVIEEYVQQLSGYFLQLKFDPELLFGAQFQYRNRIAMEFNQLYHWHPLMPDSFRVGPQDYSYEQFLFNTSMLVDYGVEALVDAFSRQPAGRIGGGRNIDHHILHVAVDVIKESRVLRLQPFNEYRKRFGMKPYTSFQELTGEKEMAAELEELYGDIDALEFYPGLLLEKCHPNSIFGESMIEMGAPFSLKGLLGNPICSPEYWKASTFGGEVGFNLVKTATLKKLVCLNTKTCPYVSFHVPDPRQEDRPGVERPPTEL
Description: Inhibition of sheep COX1 by enzyme immunoassay

SMILES strings stand for the structures.

For the compound `NS(=O)(=O)c1ccc(-n2nc(C(F)(F)F)cc2-c2ccc(/[N+]([O-])=N\O)cc2)cc1`, the ED50 in the assay with Rattus norvegicus [1] is 168 µmol/kg. Further, in the assay with Rattus norvegicus [2], the inhibition in vivo at 100 mg/kg turned out to be 65.7%.

Compound `CO/N=[N+](/[O-])c1ccc(-c2cc(C(F)(F)F)nn2-c2ccc(S(C)(=O)=O)cc2)cc1` showed an IC50 in assay [3] of 10.5 µM. In addition, in the assay on Rattus norvegicus [2], the inhibition in vivo at 100 mg/kg amounted to 9.8%.

`CO/N=[N+](/[O-])c1ccc(-c2cc(C(F)(F)F)nn2-c2ccc(S(N)(=O)=O)cc2)cc1` had an IC50 in assay [3] of 12.1 µM. Further, the ED50 with Rattus norvegicus [1] was 241 µmol/kg. Further, the inhibition in vivo at 100 mg/kg in the assay on Rattus norvegicus [2] was determined as 47.7%.

In turn, `CC(=O)OC(C)O/N=[N+](/[O-])c1ccc(-c2cc(C(F)(F)F)nn2-c2ccc(S(C)(=O)=O)cc2)cc1` (stereo unspecified) showed an IC50 in assay [3] of 17 µM. The inhibition in vivo at 100 mg/kg in the assay with Rattus norvegicus [2] was determined as 5.1%.

As to `CC(=O)OC(C)O/N=[N+](/[O-])c1ccc(-c2cc(C(F)(F)F)nn2-c2ccc(S(N)(=O)=O)cc2)cc1` (stereo unspecified), inhibition in assay [3] was half-maximal at 11.3 µM (IC50). Moreover, the inhibition in vivo at 100 mg/kg with Rattus norvegicus [2] came to 18.6%.

For the origin of these results see ChEMBL document CHEMBL1208697 (Bioorg Med Chem Lett, 2010).
